Measured values reported in ChEMBL document CHEMBL1687752, “Impact of antifungal prophylaxis on colonization and azole susceptibility of Candida species” (2009).
≈ marks a conversion by molar mass, not a printed value.

Tests used:
Format in all cases: functional
Candida albicans [1] = assay: Antifungal activity against Candida albicans isolated from HSCT recipients with acute or chronic GVHD prior to initiation of posaconazole therapy assessed as maximum MIC by broth microdilution method
Nakaseomyces glabratus [2] = assay: Antifungal activity against 85 days cultured Candida glabrata isolated from HSCT recipient with acute or chronic GVHD mouth receiving antifungal therapy for 143 days after 116 days of prophylaxis by broth microdilution method
Nakaseomyces glabratus [3] = assay: Antifungal activity against Candida glabrata isolated from neutropenic subjects with AML or MDS prior to initiation of posaconazole therapy by broth microdilution method
Candida albicans [4] = assay: Antifungal activity against Candida albicans isolated from neutropenic subjects with AML or MDS receiving fluconazole assessed as maximum MIC by broth microdilution method
Candida tropicalis [5] = assay: Antifungal activity against 2 days cultured Candida tropicalis isolated from neutropenic subject with AML or MDS stool receiving antifungal therapy for 45 days after 24 days of prophylaxis by broth microdilution method
Nakaseomyces glabratus [6] = assay: Antifungal activity against 16 days cultured Candida glabrata isolated from HSCT recipient with acute or chronic GVHD mouth receiving antifungal therapy for 31 days after 28 days of prophylaxis by broth microdilution method
Nakaseomyces glabratus [7] = assay: Antifungal activity against Candida glabrata isolated from HSCT recipients with acute or chronic GVHD prior to initiation of fluconazole therapy assessed as maximum MIC by broth microdilution method
Nakaseomyces glabratus [8] = assay: Antifungal activity against Candida glabrata isolated from neutropenic subjects with AML or MDS receiving fluconazole assessed as maximum MIC by broth microdilution method
Candida albicans [9] = assay: Antifungal activity against Candida albicans isolated from HSCT recipient 031 with acute or chronic GVHD mouth after 109 days prophylaxis by broth microdilution method
Nakaseomyces glabratus [10] = assay: Antifungal activity against 14 days cultured Candida glabrata isolated from HSCT recipient with acute or chronic GVHD mouth after 17 days of prophylaxis by broth microdilution method
Nakaseomyces glabratus [11] = assay: Antifungal activity against Candida glabrata isolated from neutropenic subjects with AML or MDS prior to initiation of fluconazole therapy assessed as maximum MIC by broth microdilution method
Nakaseomyces glabratus [12] = assay: Antifungal activity against 60 days cultured Candida glabrata isolated from HSCT recipient with acute or chronic GVHD mouth receiving antifungal therapy for 75 days after 33 days of prophylaxis by broth microdilution method
Pichia kudriavzevii [13] = assay: Antifungal activity against 6 days cultured Candida krusei isolated from neutropenic subject with AML or MDS stool receiving antifungal therapy for 19 days after 6 days of prophylaxis by broth microdilution method
Candida albicans [14] = assay: Antifungal activity against Candida albicans isolated from HSCT recipients with acute or chronic GVHD receiving posaconazole by broth microdilution method
Candida albicans [15] = assay: Antifungal activity against 1 day cultured Candida albicans isolated from HSCT recipient with acute or chronic GVHD mouth after 2 days of prophylaxis by broth microdilution method
Nakaseomyces glabratus [16] = assay: Antifungal activity against 35 days cultured Candida glabrata isolated from HSCT recipient with acute or chronic GVHD mouth receiving antifungal therapy for 165 days after 138 days of prophylaxis by broth microdilution method
Candida albicans [17] = assay: Antifungal activity against Candida albicans isolated from HSCT recipients with acute or chronic GVHD prior to initiation of posaconazole therapy by broth microdilution method
Nakaseomyces glabratus [18] = assay: Antifungal activity against 42 days cultured Candida glabrata isolated from neutropenic subject with AML or MDS stool after 48 days of prophylaxis by broth microdilution method
Candida albicans [19] = assay: Antifungal activity against Candida albicans isolated from HSCT recipient 042 with acute or chronic GVHD mouth after 112 days prophylaxis by broth microdilution method
Nakaseomyces glabratus [20] = assay: Antifungal activity against Candida glabrata isolated from neutropenic subject 1497 with AML or MDS pharynx receiving antifungal drug after 61 days prophylaxis by broth microdilution method
Nakaseomyces glabratus [21] = assay: Antifungal activity against Candida glabrata isolated from HSCT recipient 186 with acute or chronic GVHD mouth receiving antifungal drug after 112 days prophylaxis by broth microdilution method
Candida albicans [22] = assay: Antifungal activity against Candida albicans isolated from neutropenic subjects with AML or MDS receiving fluconazole by broth microdilution method
Nakaseomyces glabratus [23] = assay: Antifungal activity against 1 day cultured Candida glabrata isolated from HSCT recipient with acute or chronic GVHD mouth after 17 days of prophylaxis by broth microdilution method
Candida albicans [24] = assay: Antifungal activity against Candida albicans isolated from HSCT recipient 462 with acute or chronic GVHD mouth after 112 days prophylaxis by broth microdilution method
Nakaseomyces glabratus [25] = assay: Antifungal activity against Candida glabrata isolated from HSCT recipients with acute or chronic GVHD prior to initiation of posaconazole therapy assessed as maximum MIC by broth microdilution method
Nakaseomyces glabratus [26] = assay: Antifungal activity against 111 days cultured Candida glabrata isolated from HSCT recipient with acute or chronic GVHD mouth receiving antifungal therapy for 143 days after 116 days of prophylaxis by broth microdilution method
Pichia kudriavzevii [27] = assay: Antifungal activity against 8 days cultured Candida krusei isolated from neutropenic subject with AML or MDS pharynx after 12 days of prophylaxis by broth microdilution method
Nakaseomyces glabratus [28] = assay: Antifungal activity against Candida glabrata isolated from HSCT recipient 497 with acute or chronic GVHD mouth after 114 days prophylaxis by broth microdilution method
Candida tropicalis [29] = assay: Antifungal activity against 9 days cultured Candida tropicalis isolated from neutropenic subject with AML or MDS stool receiving antifungal therapy for 45 days after 24 days of prophylaxis by broth microdilution method
Nakaseomyces glabratus [30] = assay: Antifungal activity against -2 days cultured Candida glabrata isolated from HSCT recipient with acute or chronic GVHD mouth receiving antifungal therapy for 172 days after 114 days of prophylaxis by broth microdilution method
Nakaseomyces glabratus [31] = assay: Antifungal activity against Candida glabrata isolated from neutropenic subject 1187 with AML or MDS stool receiving antifungal drug after 22 days prophylaxis by broth microdilution method; conditions: 528 h
Nakaseomyces glabratus [32] = assay: Antifungal activity against Candida glabrata isolated from HSCT recipients with acute or chronic GVHD receiving posaconazole by broth microdilution method
Nakaseomyces glabratus [33] = assay: Antifungal activity against Candida glabrata isolated from neutropenic subject 1497 with AML or MDS pharynx after 61 days prophylaxis by broth microdilution method
Candida albicans [34] = assay: Antifungal activity against Candida albicans isolated from HSCT recipient 262 with acute or chronic GVHD mouth after 115 days prophylaxis by broth microdilution method
Nakaseomyces glabratus [35] = assay: Antifungal activity against 59 days cultured Candida glabrata isolated from HSCT recipient with acute or chronic GVHD mouth receiving antifungal therapy for 75 days after 33 days of prophylaxis by broth microdilution method
Nakaseomyces glabratus [36] = assay: Antifungal activity against 176 days cultured Candida glabrata isolated from HSCT recipient with acute or chronic GVHD mouth receiving antifungal therapy for 168 days after 113 days of prophylaxis by broth microdilution method
Nakaseomyces glabratus [37] = assay: Antifungal activity against 62 days cultured Candida glabrata isolated from HSCT recipient with acute or chronic GVHD mouth receiving antifungal therapy for 143 days after 116 days of prophylaxis by broth microdilution method
Nakaseomyces glabratus [38] = assay: Antifungal activity against Candida glabrata isolated from HSCT recipient 807 with acute or chronic GVHD mouth after 114 days prophylaxis by broth microdilution method
Nakaseomyces glabratus [39] = assay: Antifungal activity against 31 days cultured Candida glabrata isolated from HSCT recipient with acute or chronic GVHD mouth receiving antifungal therapy for 31 days after 28 days of prophylaxis by broth microdilution method

OC(Cn1cncn1)(Cn1cncn1)c1ccc(F)cc1F [FLUCONAZOLE]
MIC (Candida albicans [1]): 64 µg/mL | MIC (Nakaseomyces glabratus [2]): 64 µg/mL (≈ 209 µM) | MIC50 (Nakaseomyces glabratus [3]): 4 µg/mL (≈ 13.1 µM) | MIC90 (Nakaseomyces glabratus [3]): 16 µg/mL (≈ 52.2 µM) | MIC (Candida albicans [4]): 64 µg/mL | MIC (Candida tropicalis [5]): 0.25 µg/mL (≈ 0.816 µM) | MIC (Nakaseomyces glabratus [6]): < 2 µg/mL | MIC (Nakaseomyces glabratus [7]): 64 µg/mL | MIC (Nakaseomyces glabratus [8]): 16 µg/mL | MIC (Candida albicans [9]): 16 µg/mL (≈ 52.2 µM) | MIC (Nakaseomyces glabratus [10]): > 64 µg/mL | MIC (Nakaseomyces glabratus [11]): 64 µg/mL | MIC (Nakaseomyces glabratus [12]): > 64 µg/mL | MIC (Pichia kudriavzevii [13]): 64 µg/mL (≈ 209 µM) | MIC50 (Candida albicans [14]): 0.25 µg/mL (≈ 0.816 µM) | MIC90 (Candida albicans [14]): 16 µg/mL (≈ 52.2 µM) | MIC (Candida albicans [15]): < 0.12 µg/mL | MIC (Nakaseomyces glabratus [16]): 64 µg/mL (≈ 209 µM) | MIC50 (Candida albicans [17]): 0.25 µg/mL (≈ 0.816 µM) | MIC90 (Candida albicans [17]): 4 µg/mL (≈ 13.1 µM) | MIC (Nakaseomyces glabratus [18]): 8 µg/mL (≈ 26.1 µM) | MIC (Candida albicans [19]): < 0.125 µg/mL | MIC (Nakaseomyces glabratus [20]): > 64 µg/mL | MIC (Nakaseomyces glabratus [21]): 32 µg/mL (≈ 104 µM) | MIC50 (Candida albicans [22]): 0.25 µg/mL (≈ 0.816 µM) | MIC90 (Candida albicans [22]): 0.5 µg/mL (≈ 1.63 µM) | MIC (Nakaseomyces glabratus [23]): > 64 µg/mL | MIC (Candida albicans [24]): 8 µg/mL (≈ 26.1 µM) | MIC (Nakaseomyces glabratus [25]): 64 µg/mL | MIC (Nakaseomyces glabratus [26]): 64 µg/mL (≈ 209 µM) | MIC (Pichia kudriavzevii [27]): > 64 µg/mL | MIC (Nakaseomyces glabratus [28]): 16 µg/mL (≈ 52.2 µM) | MIC (Candida tropicalis [29]): 0.5 µg/mL (≈ 1.63 µM) | MIC (Nakaseomyces glabratus [30]): 16 µg/mL (≈ 52.2 µM) | MIC (Nakaseomyces glabratus [31]): 32 µg/mL (≈ 104 µM) | MIC50 (Nakaseomyces glabratus [32]): 64 µg/mL (≈ 209 µM) | MIC90 (Nakaseomyces glabratus [32]): 64 µg/mL (≈ 209 µM) | MIC (Nakaseomyces glabratus [33]): 2 µg/mL (≈ 6.53 µM) | MIC (Candida albicans [34]): 0.25 µg/mL (≈ 0.816 µM) | MIC (Nakaseomyces glabratus [35]): 16 µg/mL (≈ 52.2 µM) | MIC (Nakaseomyces glabratus [36]): > 64 µg/mL | MIC (Nakaseomyces glabratus [37]): 64 µg/mL (≈ 209 µM) | MIC (Nakaseomyces glabratus [38]): 16 µg/mL (≈ 52.2 µM) | MIC (Nakaseomyces glabratus [39]): < 4 µg/mL

CCC(C)n1ncn(-c2ccc(N3CCN(c4ccc(OCC5COC(Cn6cncn6)(c6ccc(Cl)cc6Cl)O5)cc4)CC3)cc2)c1=O (stereo not drawn) [ITRACONAZOLE]
MIC (Candida albicans [1]): 16 µg/mL | MIC (Nakaseomyces glabratus [2]): 8 µg/mL (≈ 11.3 µM) | MIC50 (Nakaseomyces glabratus [3]): 0.25 µg/mL (≈ 0.354 µM) | MIC90 (Nakaseomyces glabratus [3]): 8 µg/mL (≈ 11.3 µM) | MIC (Candida albicans [4]): 8 µg/mL | MIC (Candida tropicalis [5]): < 0.015 µg/mL | MIC (Nakaseomyces glabratus [6]): < 1 µg/mL | MIC (Nakaseomyces glabratus [7]): 32 µg/mL | MIC (Nakaseomyces glabratus [8]): 8 µg/mL | MIC (Candida albicans [9]): 0.03 µg/mL (≈ 0.0425 µM) | MIC (Nakaseomyces glabratus [10]): > 8 µg/mL | MIC (Nakaseomyces glabratus [11]): 8 µg/mL | MIC (Nakaseomyces glabratus [12]): 4 µg/mL (≈ 5.67 µM) | MIC (Pichia kudriavzevii [13]): 0.5 µg/mL (≈ 0.709 µM) | MIC50 (Candida albicans [14]): 0.03 µg/mL (≈ 0.0425 µM) | MIC90 (Candida albicans [14]): 0.25 µg/mL (≈ 0.354 µM) | MIC (Candida albicans [15]): < 0.03 µg/mL | MIC (Nakaseomyces glabratus [16]): 8 µg/mL (≈ 11.3 µM) | MIC50 (Candida albicans [17]): 0.03 µg/mL (≈ 0.0425 µM) | MIC90 (Candida albicans [17]): 0.06 µg/mL (≈ 0.085 µM) | MIC (Nakaseomyces glabratus [18]): 1 µg/mL (≈ 1.42 µM) | MIC (Candida albicans [19]): < 0.015 µg/mL | MIC (Nakaseomyces glabratus [20]): 8 µg/mL (≈ 11.3 µM) | MIC (Nakaseomyces glabratus [21]): 2 µg/mL (≈ 2.83 µM) | MIC50 (Candida albicans [22]): 0.015 µg/mL (≈ 0.0213 µM) | MIC90 (Candida albicans [22]): 0.015 µg/mL (≈ 0.0213 µM) | MIC (Nakaseomyces glabratus [23]): > 8 µg/mL | MIC (Candida albicans [24]): 0.06 µg/mL (≈ 0.085 µM) | MIC (Nakaseomyces glabratus [25]): 8 µg/mL | MIC (Nakaseomyces glabratus [26]): > 8 µg/mL | MIC (Pichia kudriavzevii [27]): 0.25 µg/mL (≈ 0.354 µM) | MIC (Nakaseomyces glabratus [28]): 1 µg/mL (≈ 1.42 µM) | MIC (Candida tropicalis [29]): 0.03 µg/mL (≈ 0.0425 µM) | MIC (Nakaseomyces glabratus [30]): 1 µg/mL (≈ 1.42 µM) | MIC (Nakaseomyces glabratus [31]): 4 µg/mL (≈ 5.67 µM) | MIC50 (Nakaseomyces glabratus [32]): 2 µg/mL (≈ 2.83 µM) | MIC90 (Nakaseomyces glabratus [32]): 8 µg/mL (≈ 11.3 µM) | MIC (Nakaseomyces glabratus [33]): 0.06 µg/mL (≈ 0.085 µM) | MIC (Candida albicans [34]): < 0.015 µg/mL | MIC (Nakaseomyces glabratus [35]): 1 µg/mL (≈ 1.42 µM) | MIC (Nakaseomyces glabratus [36]): 2 µg/mL (≈ 2.83 µM) | MIC (Nakaseomyces glabratus [37]): 8 µg/mL (≈ 11.3 µM) | MIC (Nakaseomyces glabratus [38]): 0.5 µg/mL (≈ 0.709 µM) | MIC (Nakaseomyces glabratus [39]): < 1 µg/mL
